One may read the pIC50 as the IC50 on a negative log10 scale, so that one unit is a factor of ten. By IC90 is commonly meant the concentration at which the effect reaches the 90% level.

The values that follow come from PMC9050811 (RSC Advances, 2020).

Experiment [1] deals with M. tuberculosis H37Ra-lux. Kind of experiment: microbe, parasite or virus in culture. The experiment is classed as cell-based, Mycobacterium tuberculosis. The following applies: for pIC50: read-out: M. tuberculosis H37Ra-lux IC50; for IC90: read-out: M. tuberculosis H37Ra-lux IC90.
Another experiment concerns Staphylococcus aureus. The experiment is described as follows: Antibacterial screening against S. aureus. The experiment is classed as cell-based. The settings on record: read-out: S. aureus IC50.
The next experiment deals with Escherichia coli. Kind of experiment: Antibacterial screening against E. coli. The experiment is classed as cell-based. The following applies: read-out: E. coli IC50.
Setting [2] is: Mycobacterium tuberculosis, H37RA, 168 h.

pIC50: −log10 of the molar value. Read-outs that look alike come from different tables or passages of the source.

In the case of `O=C(Nc1ccc(N2CCN(C(=O)c3cnccn3)CC2)nc1)c1ccccc1` [6a, N-(6-(4-(Pyrazine-2-carbonyl)piperazin-1-yl)pyridin-3-yl)benzamide], the figures for the pIC50 (in experiment [1] (setting [2]); in the experiment with Staphylococcus aureus (Staphylococcus aureus); in the experiment on Escherichia coli) were 5.84, below 4.19 and below 4.19, respectively.

Regarding `COc1ccc(C(=O)Nc2ccc(N3CCN(C(=O)c4cnccn4)CC3)nc2)cc1` [6b, 4-Methoxy-N-(6-(4-(pyrazine-2-carbonyl)piperazin-1-yl)pyridin-3-yl)benzamide], the pIC50 (in experiment [1] (setting [2]); in the experiment on Staphylococcus aureus (Staphylococcus aureus); in the experiment with Escherichia coli) was below 4.19 throughout.

In the case of `CC(C)(C)c1ccc(C(=O)Nc2ccc(N3CCN(C(=O)c4cnccn4)CC3)nc2)cc1` [6c, 4-(tert-Butyl)-N-(6-(4-(pyrazine-2-carbonyl)piperazin-1-yl)pyridin-3-yl)benzamide], the pIC50 (in experiment [1] (setting [2]); in the experiment on Staphylococcus aureus (Staphylococcus aureus); with Escherichia coli) was below 4.19 throughout.

Turning to `O=C(Nc1ccc(N2CCN(C(=O)c3cnccn3)CC2)nc1)c1ccc(Cl)cc1` [6d, 4-Chloro-N-(6-(4-(pyrazine-2-carbonyl)piperazin-1-yl)pyridin-3-yl)benzamide], the pIC50 (in experiment [1] (setting [2]); in the experiment with Staphylococcus aureus (Staphylococcus aureus); in the experiment with Escherichia coli) was below 4.19 each time.

Take `O=C(Nc1ccc(N2CCN(C(=O)c3cnccn3)CC2)nc1)c1ccc(Br)cc1` [6e, 4-Bromo-N-(6-(4-(pyrazine-2-carbonyl)piperazin-1-yl)pyridin-3-yl)benzamide]: the values for the pIC50 (in experiment [1] (setting [2]); in the experiment on Staphylococcus aureus (Staphylococcus aureus); in the experiment on Escherichia coli) were 5.66, below 4.19 and below 4.19, respectively.

For the compound `O=C(Nc1ccc(N2CCN(C(=O)c3cnccn3)CC2)nc1)c1cccc([N+](=O)[O-])c1` [6f, 3-Nitro-N-(6-(4-(pyrazine-2-carbonyl)piperazin-1-yl)pyridin-3-yl)benzamide], in experiment [1], the “Anti-TB activity against M. tuberculosis H37Ra in words” value (“Anti-TB activity” for short) was “inactive”. The pIC50 (in experiment [1] (setting [2]); with Staphylococcus aureus (Staphylococcus aureus); in the experiment on Escherichia coli) was below 4.19 each time.

As for `O=C(Nc1ccc(N2CCN(C(=O)c3cnccn3)CC2)nc1)c1cccc(Br)c1` [6g, 3-Bromo-N-(6-(4-(pyrazine-2-carbonyl)piperazin-1-yl)pyridin-3-yl)benzamide], the “Anti-TB activity” value in experiment [1] was “inactive”. In addition, the pIC50 (in experiment [1] (setting [2]); with Staphylococcus aureus (Staphylococcus aureus); with Escherichia coli) was below 4.19 each time.

Turning to `Cc1ccccc1C(=O)Nc1ccc(N2CCN(C(=O)c3cnccn3)CC2)nc1` [6h, 2-Methyl-N-(6-(4-(pyrazine-2-carbonyl)piperazin-1-yl)pyridin-3-yl)benzamide], the pIC50 in experiment [1] (setting [2]) is 5.74; with Staphylococcus aureus (Staphylococcus aureus) it was below 4.19; in the experiment on Escherichia coli, below 4.19. Also, the IC90 in experiment [1] is 3.85 µM.

`O=C(Nc1ccc(N2CCN(C(=O)c3cnccn3)CC2)nc1)c1ccccc1I` [6i, 2-Iodo-N-(6-(4-(pyrazine-2-carbonyl)piperazin-1-yl)pyridin-3-yl)benzamide]: the pIC50 (in experiment [1] (setting [2]); in the experiment on Staphylococcus aureus (Staphylococcus aureus); in the experiment on Escherichia coli) was below 4.19 each time.

Consider `O=C(Nc1ccc(N2CCN(C(=O)c3cnccn3)CC2)nc1)c1c(Cl)cccc1Br` [6j, 2-Bromo-6-chloro-N-(6-(4-(pyrazine-2-carbonyl)piperazin-1-yl)pyridin-3-yl)benzamide], for which the pIC50 was 5.74 in experiment [1] (setting [2]), 5.67 in experiment [1], below 4.19 in the experiment on Staphylococcus aureus (Staphylococcus aureus) and below 4.19 in the experiment on Escherichia coli. Further, the IC90 in experiment [1] is 3.94 µM.

Consider `O=C(Nc1ccc(N2CCN(C(=O)c3cnccn3)CC2)nc1)c1ccc(Br)cc1Cl` [6k, 4-Bromo-2-chloro-N-(6-(4-(pyrazine-2-carbonyl)piperazin-1-yl)pyridin-3-yl)benzamide], for which the pIC50 in experiment [1] (setting [2]) was 5.87; with Staphylococcus aureus (Staphylococcus aureus), below 4.19; in the experiment with Escherichia coli it was below 4.19.

Turning to `O=C(Nc1ccc(N2CCN(C(=O)c3cnccn3)CC2)nc1)c1ccc(Cl)cc1Cl` [6l, 2,4-Dichloro-N-(6-(4-(pyrazine-2-carbonyl)piperazin-1-yl)pyridin-3-yl)benzamide], in experiment [1], the “Anti-TB activity” value was “inactive”. The pIC50 (in experiment [1] (setting [2]); in the experiment with Staphylococcus aureus (Staphylococcus aureus); in the experiment with Escherichia coli) was below 4.19 each time.

As to `O=C(Nc1ccc(N2CCN(C(=O)c3cnccn3)CC2)nc1)c1ccncc1` [6m, N-(6-(4-(Pyrazine-2-carbonyl)piperazin-1-yl)pyridin-3-yl)isonicotinamide], in experiment [1], the “Anti-TB activity” value is given as “loss of activity”. For the same compound, the pIC50 (in experiment [1] (setting [2]); with Staphylococcus aureus (Staphylococcus aureus); in the experiment on Escherichia coli) was below 4.19 in each case.

Consider `O=C(Nc1ccc(N2CCN(C(=O)c3cnccn3)CC2)nc1)c1cnccn1` [6n, N-(6-(4-(Pyrazine-2-carbonyl)piperazin-1-yl)pyridin-3-yl)pyrazine-2-carboxamide], for which, in experiment [1], the “Anti-TB activity” value is recorded as “loss of activity”. Besides, the pIC50 (in experiment [1] (setting [2]); with Staphylococcus aureus (Staphylococcus aureus); with Escherichia coli) was below 4.19 each time.

Consider `O=C(Nc1ccc(N2CCCN(C(=O)c3cnccn3)CC2)nc1)c1ccccc1` [7a, N-(6-(4-(Pyrazine-2-carbonyl)-1,4-diazepan-1-yl)pyridin-3-yl)benzamide], for which the pIC50 (in experiment [1] (setting [2]); in the experiment on Staphylococcus aureus (Staphylococcus aureus); in the experiment on Escherichia coli) was below 4.19 throughout.

Consider `CCOc1ccc(C(=O)Nc2ccc(N3CCCN(C(=O)c4cnccn4)CC3)nc2)cc1` [7b, 4-Ethoxy-N-(6-(4-(pyrazine-2-carbonyl)-1,4-diazepan-1-yl)pyridin-3-yl)benzamide], for which the pIC50 (in experiment [1] (setting [2]); in the experiment with Staphylococcus aureus (Staphylococcus aureus); with Escherichia coli) was below 4.19 throughout.

Turning to `CC(C)(C)c1ccc(C(=O)Nc2ccc(N3CCCN(C(=O)c4cnccn4)CC3)nc2)cc1` [7c, 4-(tert-Butyl)-N-(6-(4-(pyrazine-2-carbonyl)-1,4-diazepan-1-yl)pyridin-3-yl)benzamide], the pIC50 (in experiment [1] (setting [2]); with Staphylococcus aureus (Staphylococcus aureus); in the experiment on Escherichia coli) was below 4.19 throughout.

For the compound `O=C(Nc1ccc(N2CCCN(C(=O)c3cnccn3)CC2)nc1)c1ccc(Cl)cc1` [7d, 4-Chloro-N-(6-(4-(pyrazine-2-carbonyl)-1,4-diazepan-1-yl)pyridin-3-yl)benzamide], the pIC50 (in experiment [1] (setting [2]); in the experiment on Staphylococcus aureus (Staphylococcus aureus); in the experiment on Escherichia coli) was below 4.19 throughout.

For the compound `O=C(Nc1ccc(N2CCCN(C(=O)c3cnccn3)CC2)nc1)c1ccc(Br)cc1` [7e, 4-Bromo-N-(6-(4-(pyrazine-2-carbonyl)-1,4-diazepan-1-yl)pyridin-3-yl)benzamide], the figures for the pIC50 (in experiment [1] (setting [2]); in the experiment with Staphylococcus aureus (Staphylococcus aureus); in the experiment with Escherichia coli) were 5.67, below 4.19 and below 4.19, respectively.

On to `O=C(Nc1ccc(N2CCCN(C(=O)c3cnccn3)CC2)nc1)c1cnccn1` [7k, N-(6-(4-(Pyrazine-2-carbonyl)-1,4-diazepan-1-yl)pyridin-3-yl)pyrazine-2-carboxamide], for which the pIC50 in the experiment on Staphylococcus aureus (Staphylococcus aureus) and with Escherichia coli was below 4.19 throughout.

With `C[C@H]1c2cccc(O)c2C(O)=C2C(=O)[C@]3(O)C(O)=C(C(N)=O)C(=O)[C@@H](N(C)C)[C@@H]3[C@@H](O)[C@@H]21` [Doxycyclin, reference compound], the pIC50 in the experiment on Staphylococcus aureus is 7.05.

In the case of `NNC(=O)c1ccncc1` [Isoniazid, reference compound], the pIC50 in experiment [1] (setting [2]) is 7.89.

Regarding `CCn1cc(C(=O)O)c(=O)c2cc(F)c(N3CCNCC3)cc21` [Norfloxacin, reference compound], the pIC50 in the experiment on Escherichia coli was 6.42.
